Nine compounds from article PMC12673918, “Design, Synthesis, and Selective Antiproliferative Activity of Indolizine Derivatives as Microtubule Destabilizers” (Archiv Der Pharmazie, 2025) can be followed below.

Common to all, as to assay type: cell-based
The test system of one experiment is BT‐20 (breast carcinoma). The experiment can be described thus: Resazurin cell viability assay, BT‐20. Conditions: Homo sapiens, BT-20; 50 µM, 72 h, mean ± SD, n = 3; read-out: % Cellular growth inhibition (at 50 µM) BT‐20. The method, then:
(§1) The tongue squamous cell carcinoma cell line CAL‐27 (ATCC CRL‐2095), breast carcinoma BT‐20 (ATCC HTB‐19), gastric carcinoma HGC‐27 (BCRJ Code 0310), and normal oral fibroblast OHMF (culture of fibroblasts derived from human oral healthy mucosa, approved by the Research Ethics Committee of the University of São Paulo, Campus of Ribeirão Preto, Brazil (with protocol number 049) were cultured in DMEM medium (DMEM, Sigma‐Aldrich, St. Louis, MO, USA) supplemented with 10% fetal bovine serum and a solution of penicillin (100 U/mL) and streptomycin (100 μg/mL). The cultures were maintained in a humidified incubator with 5% CO₂ at 37°C.
(§2) Cell viability was analyzed using the resazurin assay. For this, cells were seeded in 96‐well plates (1 × 10^3 cells per well) and incubated at 37°C with 5% CO₂ overnight for cell adhesion. Subsequently, the cells were treated with different compounds (0–50 µM) for 72 h. After treatment, the medium was replaced with phenol‐free DMEM medium (Sigma‐Aldrich) containing resazurin at a concentration of 44 µM (Sigma‐Aldrich). After incubation for 4 h at 37°C, fluorescence detection was performed (excitation 530/25 nm, emission 590/35 nm) using a microplate fluorimeter (Synergy 2, Biotek). Initial cell growth inhibition assays were performed in triplicate or quadruplicate, while IC50 determinations were conducted in triplicate. Data were plotted, and IC₅₀ values were determined by nonlinear regression using GraphPad Prism software 9.0.
(§3) ^a Cell viability was assessed using the resazurin assay after 72 hours of compound treatment. Fluorescence was measured to estimate % of cellular growth inhibition at 50 µM values, based on triplicate experiments.
(§4) ^b IC50 values were determined using the same resazurin-based assay, with fluorescence measurements performed after 72 hours of treatment. These experiments were carried out in triplicate.
A general note: Resazurin is reduced to fluorescent resorufin, in cell work by metabolically active cells.

In experiment [1] the test system is HGC‐27 (gastric carcinoma). The experiment can be described thus: Resazurin cell viability assay, HGC‐27. The following applies: Homo sapiens, HGC-27; 50 µM, 72 h, mean ± SD, n = 3; read-out: % Cellular growth inhibition (at 50 µM) HGC‐27. The method, then: as §1, §2, §3, §4
The target of the next experiment is T1, human P2X4 receptor (Homo sapiens, UniProt Q99571).
T1 construct: expressed in transfected cells; host or cells: human 1321N1 astrocytoma cells
T1 sequence (Q99571 1-388): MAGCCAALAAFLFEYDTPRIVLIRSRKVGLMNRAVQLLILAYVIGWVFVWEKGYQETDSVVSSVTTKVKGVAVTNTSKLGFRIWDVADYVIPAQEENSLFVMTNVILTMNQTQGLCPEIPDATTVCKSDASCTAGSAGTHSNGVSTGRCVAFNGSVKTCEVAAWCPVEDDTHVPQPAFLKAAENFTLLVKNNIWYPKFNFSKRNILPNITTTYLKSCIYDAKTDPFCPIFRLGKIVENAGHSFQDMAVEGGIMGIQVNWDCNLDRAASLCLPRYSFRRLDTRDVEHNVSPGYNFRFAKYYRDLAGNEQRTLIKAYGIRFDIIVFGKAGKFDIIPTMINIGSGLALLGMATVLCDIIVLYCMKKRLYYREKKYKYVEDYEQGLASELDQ
Put plainly: Ca2+‐flux assay for the hP2X4 receptor. The following applies: read-out: % Inhibition of P2X4R at 10 µM compounds’ concentration. How it is done: Human 1321N1 astrocytoma cells stably expressing the human P2X4 receptor (generated in‐house) were cultured in Dulbecco's Modified Eagle Medium supplemented with 9% (v/v) FCS, 1% (v/v) Penicillin/Streptomycin (10000 I.U./mL, 10 mg/mL in 0.9% NaCl) and puromycin (1 µg/mL) as a selection antibiotic at 37°C and 5% CO2. Cells were subcultured in cell culture 75 cm^2 flasks and split every 2–4 days (1:5; 1:6) once confluent.
1321N1 cells stably expressing human P2X4 receptor were seeded into black‐walled 96‐well plates (Thermo Fisher Scientific) at 2.5 × 10^4 cells/well and incubated at 37°C for 24–48 h. All test compounds were diluted in assay buffer solution (SBS: 135 mM NaCl; 5 mM KCl; 1 mM MgCl2.6 H2O; 1.8 mM CaCl2; 5.6 mM D‐Glucose; 10 mM HEPES, 0.1% (m/v) BSA, 0.05% (m/v) gelatine, 2.3 mM probenecid). The culture medium was removed, and 100 µL of 4 μM fluorescent Ca^2+ indicator Calbryte520AM in SBS was added and incubated at 37°C for 1 h. The dye solution was then removed, 100 µL of SBS solution and 50 µL of antagonist dilutions (10^–5–10^–9 M) in SBS were added, and the cells were incubated at room temperature for an extra 30 min. Finally, 50 µL of ATP (at a concentration of the previously determined EC50‐ value) was added by using FlexStation 3 Multi‐Mode Microplate Reader (Molecular Devices, San Jose, CA, USA, Software SoftMax7 Pro). The changes in intracellular Ca^2+ ion concentrations were monitored over 200 s (20 s baseline) by measuring the fluorescence signal at λ ex = 494 nm and λ em = 516 nm ([…] cut‐off). The concentration‐dependent decrease in Ca^2+‐flux, expressed as RFU, was plotted against the concentrations of the compounds.

Another experiment addresses T2, human P2X7 receptor (Homo sapiens, UniProt Q99572).
T2 construct: host or cells: HEK-293
T2 sequence (Q99572 1-595): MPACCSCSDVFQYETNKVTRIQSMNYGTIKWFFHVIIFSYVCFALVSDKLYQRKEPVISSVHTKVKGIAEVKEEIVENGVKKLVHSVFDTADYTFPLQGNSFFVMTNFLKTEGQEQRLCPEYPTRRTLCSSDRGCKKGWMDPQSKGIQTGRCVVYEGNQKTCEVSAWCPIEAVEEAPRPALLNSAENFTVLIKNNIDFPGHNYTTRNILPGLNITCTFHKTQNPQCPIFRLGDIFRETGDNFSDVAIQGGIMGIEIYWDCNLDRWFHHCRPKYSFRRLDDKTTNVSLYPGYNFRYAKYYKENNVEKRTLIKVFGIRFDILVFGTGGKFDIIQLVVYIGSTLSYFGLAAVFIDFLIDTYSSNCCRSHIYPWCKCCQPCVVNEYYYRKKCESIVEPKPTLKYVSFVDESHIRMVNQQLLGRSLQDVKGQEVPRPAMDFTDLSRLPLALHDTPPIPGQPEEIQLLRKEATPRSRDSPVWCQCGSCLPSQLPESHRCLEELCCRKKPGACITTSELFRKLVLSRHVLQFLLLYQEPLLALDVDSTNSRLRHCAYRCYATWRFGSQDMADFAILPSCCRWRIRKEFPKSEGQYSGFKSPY
The experiment can be described thus: YO‐PRO‐1 dye uptake assay for the P2X7 receptor. Conditions: P2X7; read-out: % Inhibition of P2X7R at 10 µM compounds’ concentration. How it is done:
HEK‐293 cell lines stably expressing human P2X7 receptor (hP2X7R‐HEK‐293, B'SYS GmbH, Witterswil, Switzerland) were maintained in a 50/50 mix of Dulbecco's Modified Eagle Medium and F12 medium (DMEM/F12) supplemented with 9% (v/v) FCS, 1% (v/v) Penicillin/Streptomycin (10000 I.U./mL, 10 mg/mL in 0.9% NaCl) and G418 (100 µg/mL) at 37°C and 5% CO2. Cells were subcultured in cell culture 75 cm^2 flasks and split every 2‐4 days (1:3; 1:6; 1:10) once confluent.
HEK‐293 cell lines stably expressing human P2X7 receptor were seeded into black‐walled Nunc 96‐well optical bottom plates (Thermo Fisher Scientific) at 2.0–4.0 × 10^4 cells/well and incubated at 37°C for 24–48 h. After removing the culture medium, cells were washed with 100 µL wash buffer (280 mM Sucrose; 5.6 mM KCl; 0.5 mM CaCl2; 10 mM D‐Glucose; 10 mM HEPES; 5 mM N‐Methyl‐D‐glucamine (pH 7.4)). Then, 50 µL assay buffer (280 mM Sucrose; 6.4 mM KCl, 10 mM D‐Glucose; 10 mM HEPES; 5.0 mM N‐Methyl‐D‐glucamine (pH 7.4)) and 50 µL of antagonist dilutions (10^–5–10^–9 M) in assay buffer were added, and the cells were incubated at 37°C for 30 min. […] Finally, the uptake of YO‐PRO‐1 dye was recorded in a 9‐point‐well scan by following the fluorescence change using a FlexStation 3 Multi‐Mode Microplate Reader (Molecular Devices, San Jose, CA, USA, Software SoftMax7 Pro, endpoint protocol, well scan with reading pattern “fill scan”, λ ex = 485 nm, λ em = 535 nm). To determine the concentration‐dependent uptake inhibition by antagonists, the YO‐PRO‐1 uptake, expressed as RFU, was plotted against the concentrations of the compounds.

For another experiment, the system named is CAL‐27 (oral carcinoma). The experiment can be described thus: Resazurin cell viability assay, CAL‐27. Conditions: Homo sapiens, CAL-27; 50 µM, 72 h, mean ± SD, n = 3; read-out: % Cellular growth inhibition (at 50 µM) CAL‐27. The method, then:
as §1, §2, §3, §4

`O=C(c1ccc(Cl)c(Cl)c1)c1ccn2ccccc12` [Compound 6e, (3,4‐dichlorophenyl)(indolizin‐1‐yl)methanone]: the inhibition at 50 µM is 40 ± 0.4% in the experiment with BT‐20 (breast carcinoma), 41 ± 1% in experiment [1] and 42 ± 0.8% with CAL‐27 (oral carcinoma). Moreover, the inhibition at 10 µM at human P2X4 receptor is 9%; at human P2X7 receptor, 7%.

As for `COc1ccc2c(C(=O)c3ccccc3)ccn2c1` [Compound 7a, (6‐methoxyindolizin‐1‐yl)(phenyl)methanone], the inhibition at 50 µM in the experiment with BT‐20 (breast carcinoma) stood at 20 ± 0.4%; in experiment [1], 18 ± 0.5%; in the experiment on CAL‐27 (oral carcinoma), 20 ± 0.9%. For the same compound, the inhibition at 10 µM is -7% on human P2X4 receptor and -6% on human P2X7 receptor.

With `COc1ccc2c(C(=O)c3ccc(Cl)cc3)ccn2c1` [Compound 7b, (4‐chlorophenyl)(6‐methoxyindolizin‐1‐yl)methanone], the results for the inhibition at 50 µM (with BT‐20 (breast carcinoma); in experiment [1]; in the experiment with CAL‐27 (oral carcinoma)) were 8 ± 1.3%, 10 ± 1.4% and 23 ± 1%, respectively. In addition, the inhibition at 10 µM turned out to be 1% at human P2X4 receptor and 4% at human P2X7 receptor.

In the case of `COc1ccc2c(C(=O)c3ccc(C)cc3)ccn2c1` [Compound 7c, (6‐methoxyindolizin‐1‐yl)(p‐tolyl)methanone], the results for the inhibition at 50 µM (in the experiment with BT‐20 (breast carcinoma); in experiment [1]; in the experiment with CAL‐27 (oral carcinoma)) were 15 ± 0.5%, 13 ± 0.7% and 20 ± 0.7%, respectively. In addition, the results for the inhibition at 10 µM on human P2X4 receptor and at human P2X7 receptor were -2% and -9%, respectively.

Regarding `COc1ccc(C(=O)c2ccn3cc(OC)ccc23)cc1` [Compound 7d, (6‐methoxyindolizin‐1‐yl)(4‐methoxyphenyl)methanone], the results for the inhibition at 50 µM (in the experiment with BT‐20 (breast carcinoma); in experiment [1]; with CAL‐27 (oral carcinoma)) were 7 ± 0.9%, 1 ± 1% and 15 ± 1.1%, respectively. Also, the inhibition at 10 µM at human P2X4 receptor was 8%; on human P2X7 receptor, 2%.

As for `CCOc1cn2cc(OC)ccc2c1C(=O)c1cc(OC)c(OC)c(OC)c1` [Compound 8c, (2‐ethoxy‐6‐methoxyindolizin‐1‐yl)(3,4,5‐trimethoxyphenyl)methanone], the inhibition at 50 µM stood at 55 ± 4.7% in the experiment with BT‐20 (breast carcinoma), 43 ± 3.5% in experiment [1] and 56 ± 4.6% in the experiment with CAL‐27 (oral carcinoma). Also, the inhibition at 10 µM at human P2X4 receptor is 10%; on human P2X7 receptor, 3%.

Take `COc1ccc2c(C(=O)c3cc(OC)c(OC)c(OC)c3)c(-c3ccccc3)cn2c1` [Compound 8f, (6‐methoxy‐2‐phenylindolizin‐1‐yl)(3,4,5‐trimethoxyphenyl)methanone]: the results for the inhibition at 50 µM (in the experiment with BT‐20 (breast carcinoma); in experiment [1]; with CAL‐27 (oral carcinoma)) were 55 ± 1.8%, 49 ± 4% and 69 ± 0.4%, respectively. Moreover, the inhibition at 10 µM at human P2X4 receptor worked out at 4%; at human P2X7 receptor, 5%.

As for `COc1ccc2c(C(=O)c3cc(OC)c(OC)c(OC)c3)c(-c3ccccn3)cn2c1` [Compound 8g, [6‐methoxy‐2‐(pyridin‐2‐yl)indolizin‐1‐yl](3,4,5‐trimethoxyphenyl)methanone], the figures for the inhibition at 50 µM (in the experiment on BT‐20 (breast carcinoma); in experiment [1]; with CAL‐27 (oral carcinoma)) were 54 ± 2.8%, 44 ± 0.4% and 68 ± 1%, respectively. Also, the inhibition at 10 µM is -8% on human P2X4 receptor and 1% at human P2X7 receptor.

As to `CCCCCc1cn2cc(OC)ccc2c1C(=O)c1cc(OC)c(OC)c(OC)c1` [Compound 8i, (6‐methoxy‐2‐pentylindolizin‐1‐yl)(3,4,5‐trimethoxyphenyl)methanone], the inhibition at 50 µM in the experiment with BT‐20 (breast carcinoma) was 38 ± 3.5%; in experiment [1] it was 61 ± 1.5%; in the experiment with CAL‐27 (oral carcinoma) it was 57 ± 2.5%. Moreover, the values for the inhibition at 10 µM on human P2X4 receptor and on human P2X7 receptor were -1% and 6%, respectively.
